According to PubChem BioAssay (NCI):
Values joined by “and” are separate entries in the source; they are usually repeats but may differ in a detail not shown here. Identical values can stand only once.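 Cells were grown in 96-well plates and exposed to each compound for 48 hours at five concentrations; endpoints were interpolated linearly between bracketing concentrations, or set to the highest concentration if not reached. GI50 = concentration required for 50% inhibition of growth. At the TGI there is no net growth.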

Assays:
Assay in all cases: growth of human tumour cells (NCI), 48 h
[1] = system: A498 renal
[2] = system: HCC-2998 colon
[3] = system: IGROV1 ovarian
[4] = system: LOX IMVI melanoma
[5] = system: NCI-H226 lung
[6] = system: NCI-H23 lung
[7] = system: OVCAR-3 ovarian
[8] = system: SK-MEL-5 melanoma
[9] = system: SNB-75 CNS
[10] = system: UO-31 renal

C#CCOc1cccc(Nc2ncnc3c(NC(=O)C=C)cccc23)c1
GI50 [1]: 24.4 µM | TGI [1]: 64.4 µM | GI50 [2]: 17.7 µM | TGI [2]: 33.9 µM | GI50 [3]: 17.8 µM | TGI [3]: 44.9 µM | GI50 [4]: 15.7 µM | TGI [4]: 46.4 µM | GI50 [5]: 25.5 µM | TGI [5]: 69.1 µM | GI50 [6]: 24.8 µM | TGI [6]: > 100 µM | GI50 [7]: 16.5 µM | TGI [7]: 91.5 µM | GI50 [8]: 14.8 µM | TGI [8]: 33.1 µM | GI50 [9]: 17.6 µM | TGI [9]: > 100 µM | GI50 [10]: 13.4 µM | TGI [10]: 87.5 µM

ClC(Cl)=C1C(=C(Cl)Cl)C(Cl)(Cl)C1(Cl)Cl
TGI [1]: 26 µM | TGI [2]: 13.7 µM | TGI [3]: 18.9 µM | TGI [4]: 0.579 µM and 1.86 µM | GI50 [5]: 0.422 µM | TGI [5]: 1.89 µM | TGI [6]: 3.57 µM | TGI [7]: 14.1 µM | TGI [8]: 9.98 µM | TGI [9]: 13.5 µM | TGI [10]: 9.07 µM

Nc1c(-c2ccccc2-c2c(N)[n+]([O-])c3ccccc3[n+]2[O-])[n+]([O-])c2ccccc2[n+]1[O-]
TGI [1]: 71.4 µM | TGI [2]: > 100 µM | TGI [4]: > 100 µM | TGI [5]: > 100 µM | TGI [6]: > 100 µM | TGI [7]: > 100 µM | TGI [8]: 31 µM | TGI [9]: > 100 µM | TGI [10]: > 100 µM

CC(C)CC(C/C=C1/CC(CO)(COC(=O)C(C)(C)C)OC1=O)CC(C)C (configuration not stated)
TGI [1]: 21.7 µM and 22.2 µM | TGI [2]: 5.37 µM and 6.13 µM | TGI [3]: 30.6 µM and 24.4 µM | GI50 [4]: 12.3 µM and 1.76 µM | TGI [4]: 27.9 µM and 21.9 µM | GI50 [5]: 3.34 µM and 14.1 µM | TGI [5]: 17.6 µM and 28.5 µM | TGI [6]: 23.4 µM and 24.4 µM | GI50 [7]: 14.9 µM and 5.32 µM | TGI [7]: 36.6 µM and 18.8 µM | GI50 [8]: 0.462 µM and 0.0794 µM | TGI [8]: 18.8 µM and 4.95 µM | TGI [9]: 23.6 µM and 26.6 µM | GI50 [10]: 10.8 µM and 3.51 µM | TGI [10]: 23 µM and 17.1 µM

O=C(CC(=O)C1CCOC1=O)C(=O)Nc1cccc(Cl)c1 (configuration not stated)
TGI [1]: > 100 µM | TGI [2]: > 100 µM | TGI [3]: > 100 µM | TGI [4]: > 100 µM | TGI [5]: > 100 µM | TGI [6]: > 100 µM | TGI [7]: > 100 µM | TGI [8]: > 100 µM | TGI [9]: > 100 µM | TGI [10]: > 100 µM

CCN1c2ccccc2-c2c3c1cc(C)cc3c1ccccc1[n+]2CC
TGI [1]: 13.9 µM | TGI [2]: 2.11 µM | TGI [4]: 1.89 µM | TGI [5]: 3.69 µM | TGI [6]: 4.08 µM | TGI [7]: 2.39 µM | TGI [8]: 1.84 µM | TGI [9]: 2.2 µM | TGI [10]: 20.8 µM

Nc1ccccc1O.O.O=C(O)C1[O][Sb][O]C1C(=O)O (configuration not stated)
GI50 [1]: > 90.3 µM | TGI [1]: > 100 µM | GI50 [2]: 17.9 µM | TGI [2]: 47.7 µM | GI50 [3]: 17.6 µM | TGI [3]: 33.2 µM | GI50 [4]: 8.59 µM | TGI [4]: 29.9 µM | GI50 [5]: > 100 µM | TGI [5]: > 100 µM | GI50 [6]: 17.6 µM | TGI [6]: 44.2 µM | GI50 [7]: 13.4 µM | TGI [7]: 28.6 µM | GI50 [8]: 1.77 µM | TGI [8]: 3.99 µM | GI50 [9]: 24.9 µM | TGI [9]: 40.5 µM | GI50 [10]: 9.34 µM | TGI [10]: 24.5 µM

O=C(/C=C/c1ccccc1)c1ccccc1
TGI [1]: > 10 µM | TGI [2]: > 10 µM | TGI [3]: > 10 µM | TGI [4]: 4.11 µM | TGI [5]: > 10 µM | TGI [6]: > 10 µM | TGI [7]: > 10 µM | TGI [8]: > 10 µM | TGI [9]: > 10 µM | TGI [10]: > 10 µM

O=C1Nc2ccccc2/C1=C1\CCc2cc(O)ccc21
GI50 [1]: 5.65 µM | TGI [1]: 17.8 µM | GI50 [2]: 9.41 µM | TGI [2]: > 25 µM | GI50 [3]: 7.63 µM | TGI [3]: > 25 µM | GI50 [4]: 6.5 µM | TGI [4]: > 25 µM | GI50 [5]: 12.4 µM | TGI [5]: > 25 µM | GI50 [6]: 7.07 µM | TGI [6]: > 25 µM | GI50 [7]: 9.95 µM | TGI [7]: > 25 µM | GI50 [8]: 6.62 µM | TGI [8]: > 25 µM | GI50 [9]: 8.06 µM | TGI [9]: > 25 µM | GI50 [10]: 1.67 µM | TGI [10]: > 23.9 µM

Cn1c(=O)nc2n(-c3cc(C(F)(F)F)cc(C(F)(F)F)c3)c3ccccc3nc-2c1=O
TGI [1]: > 100 µM | TGI [2]: > 100 µM | TGI [3]: > 100 µM | TGI [4]: > 100 µM | TGI [5]: > 100 µM | TGI [6]: > 100 µM | TGI [7]: > 100 µM | TGI [8]: 54.4 µM | TGI [9]: 47.1 µM | TGI [10]: > 100 µM

CN(C(=O)c1ccc([N+](=O)[O-])cc1)c1ccccc1
TGI [1]: > 100 µM | TGI [2]: > 100 µM | TGI [3]: > 100 µM | TGI [4]: > 100 µM | TGI [5]: > 100 µM | TGI [6]: > 100 µM | TGI [7]: > 100 µM | TGI [9]: > 100 µM | TGI [10]: > 100 µM

O=C(Nc1cc(Nc2ncccc2-c2ncnc3nc[nH]c23)ccc1F)c1cc(C(F)(F)F)cc(C(F)(F)F)c1
GI50 [1]: 0.648 µM | TGI [1]: 3.92 µM | GI50 [2]: 1.24 µM | TGI [2]: 2.74 µM | GI50 [3]: 1.63 µM | TGI [3]: 7.2 µM | GI50 [4]: 0.384 µM | TGI [4]: 2.02 µM | GI50 [5]: 2.74 µM | TGI [5]: > 10 µM | GI50 [6]: 1.45 µM | TGI [6]: > 10 µM | GI50 [7]: 2.67 µM | TGI [7]: 6.69 µM | GI50 [8]: 1.12 µM | TGI [8]: 2.76 µM | GI50 [9]: 1.9 µM | TGI [9]: 7.15 µM | GI50 [10]: 0.319 µM | TGI [10]: 1.99 µM

COC(=O)C(=O)C(C(C)=O)C(=O)NCc1ccc(OC)c(OC)c1 (configuration not stated)
TGI [1]: > 100 µM | TGI [2]: > 100 µM | TGI [3]: > 100 µM | TGI [4]: > 100 µM | TGI [5]: > 100 µM | TGI [6]: > 100 µM | TGI [7]: > 100 µM | TGI [8]: > 100 µM | TGI [9]: > 100 µM | TGI [10]: > 100 µM

CN(C)C(=S)SSC(=S)N(C)C
GI50 [1]: 15.1 µM | TGI [1]: > 100 µM | GI50 [2]: 38.3 µM | TGI [2]: > 100 µM and 38 µM | GI50 [3]: > 89.9 µM | TGI [3]: > 100 µM and 29.3 µM | GI50 [4]: 14.9 µM and 5.4 µM and 22.7 µM | TGI [4]: 28.8 µM and 21.4 µM and > 55 µM | GI50 [5]: 21.4 µM and > 78.4 µM and 38.3 µM | TGI [5]: 84.6 µM and > 100 µM and > 65.8 µM | GI50 [6]: 21.5 µM and 4.49 µM and 21 µM | TGI [6]: 64.9 µM and 14.3 µM and 43.7 µM | TGI [8]: > 100 µM and 20.8 µM and 29.2 µM | GI50 [9]: 15.2 µM | TGI [9]: 38.5 µM and > 100 µM | GI50 [10]: 15 µM | TGI [10]: 28.7 µM and > 46.4 µM and 94 µM

CC1CC(O)C(=O)C(O[C@@H]2C[C@@H]3CC[C@@H]4[C@H](CC[C@]5(C)C(C6=CC(=O)OC6)CC[C@]45O)[C@@]3(C=O)C[C@H]2O)O1 (some centres not stated)
TGI [1]: 0.232 µM | TGI [2]: 0.243 µM | TGI [4]: 0.0681 µM | TGI [5]: 0.228 µM | TGI [6]: 0.0565 µM | TGI [7]: 0.0346 µM | TGI [8]: 0.0174 µM | TGI [9]: 0.18 µM | TGI [10]: 0.22 µM

COc1ccc(-c2nn(-c3cccc(Cl)c3)cc2-c2cc(-c3ccccc3)[nH]c(=O)c2C#N)cc1
GI50 [1]: 0.171 µM | TGI [1]: 1.6 µM | GI50 [2]: 15.9 µM | TGI [2]: > 50 µM | GI50 [3]: 1.89 µM | TGI [3]: 7.71 µM | GI50 [4]: 8.97 µM | TGI [4]: > 50 µM | GI50 [5]: 0.969 µM | TGI [5]: > 50 µM | GI50 [6]: 2.46 µM | TGI [6]: 13.6 µM | GI50 [7]: 2.84 µM | TGI [7]: 16.8 µM | GI50 [8]: 5.76 µM | TGI [8]: > 50 µM | GI50 [9]: 1.17 µM | TGI [9]: 3.61 µM
